Laboratory results from patent publication US10085449B2, “N-[1-((6-chloropyridin-3-yl)methyl)pyridin-2(1H)-ylidene]-2,2,2- trifluoroacetamide for control of agricultural/horticultural pests” (priority 2010, dated 2018).
Where two headings read alike, the source gives them in different places.

Key:
[1] = tested on: house fly crude enzyme extract; assay: In vitro metabolic test using house fly crude enzyme extract; type: in vitro ADME; conditions: house fly crude enzyme extract with NADP+ regenerating system, 25° C., 40 hours, LC/MS
Experimental: As mentioned in Pest Management Science, 59(3), 347-352 (2003) and the Journal of Pesticide Science, 29(2), 110-116 (2004), imidacloprid is known to be inactivated by incurring oxidative metabolism, which is thought to be one mechanism of acquiring resistance to this agent. The following experiment was carried out to confirm the effects in pests which have acquired such resistance.
An amount of 10 mL of a potassium phosphate buffer solution (pH 7.4, containing 1 mM EDTA) was added to adult house flies (0.645 g), and the flies were thoroughly homogenized in a Physcotron (Niti-On Medical and Physical Instruments Manufacturing Co.). The homogenate was then centrifuged at 10,000 g for 15 minutes. The resulting supernatant was additionally centrifuged at 100,000 g for 60 minutes, giving a precipitate. The precipitate was dissolved in 1 mL of a potassium phosphate buffer, and the resulting solution was used as the crude enzyme extract. The enzyme extraction operations were all carried out on ice or at 4° C.
The reagents were mixed in the following proportions within a 1.5 mL tube, and the reaction was effected at 25° C. for 40 hours. Following the reaction, 1 mL of acetone was added and the mixture was stirred, following which the precipitate that formed was centrifuged at 12,000 rpm for 5 minutes. […]

[2] = tested on: brown rice planthopper having a low susceptibility to insecticides; type: in vivo; set-up: key to Brown rice planthopper, Kumamoto low susceptibility (rice soil drenching), effect: mortality %, dead/(live+dead) ×100; conditions: for Mortality: all the lines (susceptible line, field-collected lines I and II); for Insecticidal effects (mortality), brown rice planthopper second-instar larvae: soil drenching treatment
Experimental: Rice seedlings grown in pots were subjected to soil drenching treatment with solutions of the inventive compounds at a predetermined concentration prepared to 10% acetone/water. Three days after treatment, ten second-instar brown rice planthopper larvae having a low susceptibility to insecticides were released onto each seedling. The seedlings and insects were then held in an incubation chamber at 25° C. (16-hour period of light, 8-hour dark period). Three days after released, the numbers of live and dead insects were counted, and the mortality was calculated from the following formula. The test was carried out as two replications. Mortality (%)=[number of dead insects/(number of live insects+number of dead insects)]×100
The pests used in this test were insects that had been raised indoors for successive generations over a long period of time (susceptible line), and insects that had been raised indoors for successive generations after being collected (I) in 2007 within Kumamoto Prefecture and (II) in 2005 within Fukuoka Prefecture (field-collected lines).

western flower thrips = assay: whole plant or invertebrate; type: in vivo; conditions: Frankliniella occidentalis, foliar
Summary of the method: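 Bean leaf discs sprayed with compound in 50% acetone/water with 0.05% Tween 20, air dried, then infested with first-instar larvae. Held at 25° C under 16 h light/8 h dark; live and dead counted after 3 days to give % mortality, two replicates.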

[3] = read-out: Insecticidal effects (mortality), western flower thrips first-instar larvae

SMILES: O=C(N=c1ccccn1Cc1ccc(Cl)nc1)C(F)(F)F [Compound 212, N-[1-((6-chloropyridin-3-yl)methyl)pyridin-2(1H)-ylidene]-2,2,2-trifluoroacetamide]
- Sum of the surface area percentages for the metabolites [1]: 0.08%
- Mortality ([2]; 0.005 mg/seedling soil drenching): at least 90%
- Mortality ([2]; 0.05 mg/seedling soil drenching): 100%
- Brown rice planthopper, Kumamoto low susceptibility (rice soil drenching), effect ([2]; 0.005 mg/pot): 90
- Brown rice planthopper, Kumamoto low susceptibility (rice soil drenching), effect ([2]; 0.05 mg/pot): 100
- Insecticidal effects (mortality), brown rice planthopper second-instar larvae ([2]; 0.02 mg/pot): 100
- Insecticidal effects (mortality), brown rice planthopper second-instar larvae ([2]; 0.05 mg/pot): 100
- mortality at 100 ppm (western flower thrips; 72 h): ≥ 80%
- mortality at 500 ppm (western flower thrips; 72 h): ≥ 80%
- mortality at 20 ppm (western flower thrips; [3]): 65%
- mortality at 100 ppm (western flower thrips; [3]): 100%
- mortality at 500 ppm (western flower thrips; [3]): 100%
